system: HCV replicon (genotype 1b, Con1 isolate) in human hepatoma cell line Huh7; experiment: HCV replicon assay (antiviral activity, anti-HCV core ELISA readout); type: cell-based; conditions: Hepatitis C virus, Huh-7, 72 h, read-out: EC50, activity against HCV genotype 1b
Method: The HCV replicon assay was used to determine the antiviral activity of substituted phosphoramidic acid esters of the general formula 1, 1.1, 1.2, 2, 2.1, and 2.2 (test compounds). The test cell line used in the HCV Replicon Assay was a human hepatoma cell line Huh7 incorporating the HCV replicon (genotype 1b, Con1 isolate). 96-well plates were seeded with cells at a density of 7.5×10^3 cells per well in 50 μl of assay media. Test compound stock solution was made up freshly in assay medium (DMEM 1×, Cellgro; cat. #10-013-CV) as a 2× stock. A total of 11 serial 3-fold dilutions of test compounds were prepared from the 2× stock in assay media ranging from 20 nM-0.2 pM final concentrations. At least 4 hours after cells were seeded, compound treatment was initiated by adding 50 μl of compound dilution to the plates. […] The final DMSO concentration was 0.5%. Cells and inhibitors incubated for 3 days at 37° C./5% CO2. Media was removed from the plates via gentle tapping. Cells were fixed with 100 μl 1:1 acetone:methanol for 1 minute, washed three times with PBS buffer, and then blocked with 150 μl/well 10% Fetal Bovine Serum (FBS) in PBS for 1 hour at room temperature. Cells were washed three times with PBS buffer, and incubated with 100 μl/well anti-hepatitis C core mAb (Affinity BioReagents; cat. # MA1-080, 1 mg/ml stock diluted 1:4,000 in 10% FBS-PBS) for 2 hours at 37° C. Cells were washed three times with PBS and incubated with 100 μl/well HRP-Goat Anti-Mouse antibody (diluted 1:3.500 in 10% FBS-PBS) for 1 hour at 37° C. Cells were washed three times with PBS and developed with 100 μl/well OPD solution (1 OPD tablet+12 ml citrate/phosphate buffer+5 μl 30% H2O2 per plate) for 30 minutes in the dark at room temperature. The reaction was stopped with 100 μl/well of 2N H2SO4, and absorbance measured at A490 X on a Victor^3 V 1420 multilabel counter (Perkin Elmer). The EC50 values were calculated for test compounds from the resulting best-fit equations determined by Xlfit software.

Row | SMILES | EC50 [nM]
1 | CC(=O)Nc1ccn([C@@H]2O[C@H](CO[P@@](=O)(N[C@H]3CCOC3=O)Oc3ccccc3)[C@@H](OC(C)=O)C2(F)F)c(=O)n1 [1(4), (2R,3R,5R)-5-(4-acetamido-2-oxopyrimidin-1(2H)-yl)-4,4-difluoro-2-(((S)—((S)-2-oxotetrahydrofuran-3-ylamino)(phenoxy)phosphoryloxy)methyl)tetrahydrofuran-3-yl acetate] | 42.1
2 | CN1CCCC(NP(=O)(OC[C@H]2O[C@@H](n3ccc(NC(=O)OCc4ccccc4)nc3=O)C(F)(F)[C@@H]2OC(=O)OCc2ccccc2)Oc2ccccc2)C1=O (stereo partly drawn) [1(7), benzyl 1-((2R,4R,5R)-4-(benzyloxycarbonyloxy)-3,3-difluoro-5-(((1-methyl-2-oxopiperidin-3-ylamino)(phenoxy)phosphoryloxy)methyl)tetrahydrofuran-2-yl)-2-oxo-1,2-dihydropyrimidin-4-ylcarbamate] | 552
3 | CN1CCCC(NP(=O)(OC[C@H]2O[C@@H](n3ccc(N)nc3=O)C(F)(F)[C@@H]2O)Oc2ccccc2)C1=O (stereo partly drawn) [1(8), ((2R,3R,5R)-5-(4-amino-2-oxopyrimidin-1(2H)-yl)-4,4-difluoro-3-hydroxytetrahydrofuran-2-yl)methyl phenyl 1-methyl-2-oxopiperidin-3-ylphosphoramidate] | 873
4 | O=C1OCCC1NP(=O)(OC[C@H]1O[C@@H](n2ccc(=O)[nH]c2=O)C(F)(F)[C@@H]1O)Oc1ccccc1 (stereo partly drawn) [1.1.(1), ((2R,3R,5R)-5-(2,4-dioxo-3,4-dihydropyrimidin-1(2H)-yl)-4,4-difluoro-3-hydroxytetrahydrofuran-2-yl)methyl phenyl 2-oxotetrahydrofuran-3-ylphosphoramidate] | 459
5 | C[C@@]1(F)[C@H](O)[C@@H](COP(=O)(N[C@H]2CCOC2=O)Oc2ccccc2)O[C@H]1n1ccc(=O)[nH]c1=O (stereo partly drawn) [1.1.(2), ((2R,3R,4R,5R)-5-(2,4-dioxo-3,4-dihydropyrimidin-1(2H)-yl)-4-fluoro-3-hydroxy-4-methyltetrahydrofuran-2-yl)methyl phenyl (S)-2-oxotetrahydrofuran-3-ylphosphoramidate] | 274
6 | CN1CCC(NP(=O)(OC[C@H]2O[C@@H](n3ccc(=O)[nH]c3=O)C(F)(F)[C@@H]2O[Si](C)(C)C(C)(C)C)Oc2ccccc2)C1=O (stereo partly drawn) [1.1.(4), ((2R,3R,5R)-3-(tert-butyldimethylsilyloxy)-5-(2,4-dioxo-3,4-dihydropyrimidin-1(2H)-yl)-4,4-difluorotetrahydrofuran-2-yl)methyl phenyl 1-methyl-2-oxopyrrolidin-3-ylphosphoramidate] | 40.5
7 | Nc1ccn([C@@H]2O[C@H](COP(=O)(N[C@H]3CCOC3=O)Oc3ccccc3)[C@@H](O)C2(F)F)c(=O)n1 (some centres unmarked) [1.2.(1)] | 19.8
8 | CC(=O)O[C@@H]1[C@@H](COP(=O)(N[C@H]2CCOC2=O)Oc2ccccc2)O[C@@H](n2ccc(N)nc2=O)C1(F)F (stereo partly drawn) [1.2.(2), (2R,3R,5R)-5-(4-amino-2-oxopyrimidin-1(2H)-yl)-4,4-difluoro-2-((((S)-2-oxotetrahydrofuran-3-ylamino)(phenoxy)phosphoryloxy)methyl)tetrahydrofuran-3-yl acetate] | 27
9 | CN1CCC(N[P@](=O)(OC[C@H]2O[C@@H](n3ccc(N)nc3=O)C(F)(F)[C@@H]2O)Oc2ccccc2)C1=O (some centres unmarked) [2.2.(1)] | 219
10 | CC(C)OC(=O)[C@H](C)NP(=O)(OC[C@H]1O[C@@H](n2ccc(=O)[nH]c2=O)[C@](C)(F)[C@@H]1O)Oc1ccccc1 (some centres unmarked) [PSI-7851, reference compound] | 59.4

system: HCV replicon (genotype 1b, Con1 isolate) in human hepatoma cell line Huh7; experiment: not given; conditions: literature value, Murakami et al., J. Biol. Chem. 285(45), 34337-34347 (2010); read-out: EC50 of known inhibitor PSI-7851 (literature); cited from earlier work

Row | SMILES | EC50 [nM]
11 | CC(C)OC(=O)[C@H](C)NP(=O)(OC[C@H]1O[C@@H](n2ccc(=O)[nH]c2=O)[C@](C)(F)[C@@H]1O)Oc1ccccc1 (some centres unmarked) [PSI-7851, reference compound] | 75
